Measured values reported in patent publication US20200361871A1 (Enterprise Therapeutics Ltd., priority 2018, published 2020).
Entries after “also recorded” stand apart in the source; their conditions may differ.

Key:
[1] = Storage of forms of Compound 36 at 40° C./75% RH in open vials, XRPD; format: physicochemical; conditions: open vial, 7 days
Experimental: Form A was stored at 40° C./75% RH, in an open vial. […] Therefore, Form A is stable to exposure to elevated temperature and humidity for up to 2 weeks and no evidence of a hydrated form was observed.
One sample of each of the new forms (Forms B, C, D, E, E+extra peaks, F, G and H) was analysed by ^1H NMR, TGA, DSC and stored at 40° C./75% RH. Results are summarised in Table E with Form A for comparison.

[2] = target: human TMEM16A (TMEM16Aabc variant) (Homo sapiens, UniProt Q5XXA6, DEL476-501, form not given); experiment: Automated whole-cell patch clamp (Qpatch) TMEM16A potentiator assay in FRT cells stably expressing human TMEM16A; format: cell-based; conditions: for % Potentiation @ 3.33 μM Avg: 3.33 μM solution of test compound, percentage increase of baseline TMEM16A current; for EC50: calculated EC50, Qpatch TMEM16A current at +70 mV
Method in brief: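 FRT cells stably expressing human TMEM16Aabc were recorded by automated whole-cell patch clamp, with intracellular Ca2+ buffered for ~EC20 activation, holding −70 mV and step to +70 mV at 0.05 Hz. Compound was applied cumulatively, 5 min per concentration. Peak current increase as % of baseline was fitted to give EC50 and maximum efficacy.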

Sequence of human TMEM16A (TMEM16Aabc variant) (Q5XXA6 with tags, fused parts or gaps DEL476-501): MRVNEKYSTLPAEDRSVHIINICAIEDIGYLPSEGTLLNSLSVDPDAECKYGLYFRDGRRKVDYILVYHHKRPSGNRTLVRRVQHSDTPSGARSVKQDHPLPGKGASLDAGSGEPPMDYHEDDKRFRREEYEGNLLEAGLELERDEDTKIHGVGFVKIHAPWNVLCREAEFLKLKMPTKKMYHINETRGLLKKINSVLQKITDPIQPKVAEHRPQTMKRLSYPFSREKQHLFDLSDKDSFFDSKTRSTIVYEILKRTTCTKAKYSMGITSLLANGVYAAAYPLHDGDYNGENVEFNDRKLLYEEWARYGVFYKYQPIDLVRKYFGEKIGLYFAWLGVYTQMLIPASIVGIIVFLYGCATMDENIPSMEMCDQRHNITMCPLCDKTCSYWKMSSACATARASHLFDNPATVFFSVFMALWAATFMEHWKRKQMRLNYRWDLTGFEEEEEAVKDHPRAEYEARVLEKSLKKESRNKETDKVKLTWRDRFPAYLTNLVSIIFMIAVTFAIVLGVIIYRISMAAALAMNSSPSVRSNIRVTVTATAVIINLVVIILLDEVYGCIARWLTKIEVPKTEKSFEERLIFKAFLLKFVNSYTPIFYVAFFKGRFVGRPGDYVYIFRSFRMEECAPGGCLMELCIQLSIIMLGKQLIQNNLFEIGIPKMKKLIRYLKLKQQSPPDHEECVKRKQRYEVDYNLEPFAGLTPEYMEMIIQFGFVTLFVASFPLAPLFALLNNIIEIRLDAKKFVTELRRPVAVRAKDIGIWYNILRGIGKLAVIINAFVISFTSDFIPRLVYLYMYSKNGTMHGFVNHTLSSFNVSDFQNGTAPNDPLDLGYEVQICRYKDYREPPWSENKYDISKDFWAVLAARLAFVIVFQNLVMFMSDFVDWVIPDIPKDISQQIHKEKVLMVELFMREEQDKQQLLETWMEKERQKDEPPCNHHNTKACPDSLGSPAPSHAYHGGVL

SMILES	Storage at 40° C./75% RH (change of form by XRPD) [1]	% Potentiation @ 3.33 μM Avg [2] [%]	EC50 [2] [nM]
C#CC(C)(C)NC(=O)c1cc(NC(=O)Cc2cc(Cl)ccc2O)ccn1 [Compound 36 Form B, 4-[[2-(5-Chloro-2-hydroxy-phenyl)acetyl]amino]-N-(1,1-dimethylprop-2-ynyl)pyridine-2-carboxamide]	stable; also recorded: No change (7 days)		
C#CC(C)(C)NC(=O)c1cc(NC(=O)Cc2cc(Cl)ccc2O)ccn1 [Compound 36 Form C, 4-[[2-(5-Chloro-2-hydroxy-phenyl)acetyl]amino]-N-(1,1-dimethylprop-2-ynyl)pyridine-2-carboxamide]	Changed to mainly		
C#CC(C)(C)NC(=O)c1cc(NC(=O)Cc2cc(Cl)ccc2O)ccn1 [Compound 36 Form D, 4-[[2-(5-Chloro-2-hydroxy-phenyl)acetyl]amino]-N-(1,1-dimethylprop-2-ynyl)pyridine-2-carboxamide]	converted to a mixture of Form A and Form B; also recorded: Changed to mainly		
C#CC(C)(C)NC(=O)c1cc(NC(=O)Cc2cc(Cl)ccc2O)ccn1 [Compound 36 Form E, 4-[[2-(5-Chloro-2-hydroxy-phenyl)acetyl]amino]-N-(1,1-dimethylprop-2-ynyl)pyridine-2-carboxamide]	Changed to mainly		
C#CC(C)(C)NC(=O)c1cc(NC(=O)Cc2cc(Cl)ccc2O)ccn1 [Compound 36 Form F, 4-[[2-(5-Chloro-2-hydroxy-phenyl)acetyl]amino]-N-(1,1-dimethylprop-2-ynyl)pyridine-2-carboxamide]	stable; also recorded: No change (7		
C#CC(C)(C)NC(=O)c1cc(NC(=O)Cc2cc(Cl)ccc2O)ccn1 [Compound 36 Form G, 4-[[2-(5-Chloro-2-hydroxy-phenyl)acetyl]amino]-N-(1,1-dimethylprop-2-ynyl)pyridine-2-carboxamide]	Changed to Form A		
CC(C)(C#N)NC(=O)c1cc(NC(=O)c2cccc3ncsc23)ccn1 [Example 83.30, N-[2-[(1-Cyano-1-methyl-ethyl)carbamoyl]-4-pyridyl]-1,3-benzothiazole-7-carboxamide]		93	
CC(CC(=O)Nc1ccnc(C(=O)NC(C)(C)C#N)c1)c1ccc(F)cc1 (stereo not drawn) [Example 83.31, N-(1-Cyano-1-methyl-ethyl)-4-[3-(4-fluorophenyl)butanoylamino]pyridine-2-carboxamide]		78	
Cn1c(=O)c(C(=O)Nc2ccnc(C(=O)NC(C)(C)C#N)c2)cc2ccccc21 [Example 83.32, N-[2-[(1-Cyano-1-methyl-ethyl)carbamoyl]-4-pyridyl]-1-methyl-2-oxo-quinoline-3-carboxamide]		-16	
CC(C)(C)NC(=O)c1cc(NC(=O)Cc2cc(Cl)ccc2O)ncn1 [Example 85, N-tert-Butyl-6-[[2-(5-chloro-2-hydroxy-phenyl)acetyl]amino] pyrimidine-4-carboxamide]		155	350
COCC(C#N)(COC)NC(=O)c1cc(NC(=O)Cc2cc(Cl)ccc2O)ccn1 [Example 86, 4-[[2-(5-Chloro-2-hydroxy-phenyl)acetyl]amino]-N-[1-cyano-2-methoxy-1-(methoxymethyl)ethyl]pyridine-2-carboxamide]		593	350
CC(C)(C)NC(=O)c1cc(NC(=O)Cc2ccc(C(C)(C)C)c(N)c2)ccn1 [Example 87, 4-[[2-(3-Amino-4-tert-butyl-phenyl)acetyl]amino]-N-tert-butyl-pyridine-2-carboxamide]		332	220
CC(C)(C)NC(=O)c1cc(NC(=O)Cc2ccc(C(C)(C)C)cc2N)ccn1 [Example 88, 4-[[2-(2-Amino-4-tert-butyl-phenyl)acetyl]amino]-N-tert-butyl-pyridine-2-carboxamide]		270	240
CC(C)(C)NC(=O)c1cc(NC(=O)Cc2ccc(C(C)(C)C)c(O)c2)ccn1 [Example 89, N-tert-Butyl-4-[[2-(4-tert-butyl-3-hydroxy-phenyl)acetyl]amino]pyridine-2-carboxamide]		366	90
CC(C)(C)NC(=O)c1cc(NC(=O)Cc2ccc(C(C)(C)C)cc2O)ccn1 [Example 90, N-tert-Butyl-4-[[2-(4-tert-butyl-2-hydroxy-phenyl)acetyl]amino]pyridine-2-carboxamide]		219	120
N#CC1(NC(=O)c2cc(NC(=O)Cc3ccc(Cl)c(O)c3)ccn2)CCOCC1 [Example 92, 4-[[2-(4-Chloro-3-hydroxy-phenyl)acetyl]amino]-N-(4-cyanotetrahydropyran-4-yl)pyridine-2-carboxamide]		133	110
CC(C)(C#N)NC(=O)c1cc(NC(=O)Cc2ccc(Cl)c(O)c2)ccn1 [Example 92.1, 4-[[2-(4-Chloro-3-hydroxy-phenyl)acetyl]amino]-N-(1-cyano-1-methyl-ethyl)pyridine-2-carboxamide]		151	140
C#CC(C)(C)NC(=O)c1cc(NC(=O)Cc2ccc(Cl)c(O)c2)ccn1 [Example 92.2, 4-[[2-(4-Chloro-3-hydroxy-phenyl)acetyl]amino]-N-(1,1-dimethylprop-2-ynyl)pyridine-2-carboxamide]		71	10
CC(C)(C)c1ccc(CC(=O)Nc2ccnc(C(=O)N[C@H]3CCCC[C@@H]3O)c2)cc1O [Example 93.1, 4-[2-(4-tert-butyl-3-hydroxyphenyl)acetamido]-N-[(1S,2S)-2-hydroxycyclohexyl]pyridine-2-carboxamide]		207	50
CC(C)(C)c1ccc(CC(=O)Nc2ccnc(C(=O)N[C@H]3CCC[C@@H]3O)c2)cc1O [Example 93.2, 4-[2-(4-tert-butyl-3-hydroxyphenyl)acetamido]-N-[(1S,2S)-2-hydroxycyclopentyl]pyridine-2-carboxamide]		220	40
CC(C)(C)c1ccc(CC(=O)Nc2ccnc(C(=O)NC3(C#N)CCOCC3)c2)cc1O [Example 93.3, 4-[[2-(4-tert-Butyl-3-hydroxy-phenyl)acetyl]amino]-N-(4-cyanotetrahydropyran-4-yl)pyridine-2-carboxamide]		130	60
CC(C)(C#N)NC(=O)c1cc(NC(=O)Cc2ccc(C(C)(C)C)c(O)c2)ccn1 [Example 93.4, 4-[[2-(4-tert-Butyl-3-hydroxy-phenyl)acetyl]amino]-N-(1-cyano-1-methyl-ethyl)pyridine-2-carboxamide]		476	70
C#CC(C)(C)NC(=O)c1cc(NC(=O)Cc2ccc(C(C)(C)C)c(O)c2)ccn1 [Example 93.5, 4-[[2-(4-tert-Butyl-3-hydroxy-phenyl)acetyl]amino]-N-(1,1-dimethylprop-2-ynyl)pyridine-2-carboxamide]		136	20
CC(C)(NC(=O)c1cc(NC(=O)Cc2cc(Cl)ccc2O)ccn1)c1ccccc1 [Example 94, 4-[[2-(5-Chloro-2-hydroxy-phenyl)acetyl]amino]-N-(1-methyl-1-phenyl-ethyl) pyridine-2-carboxamide]		516	340
